PMC6154738, “Anti-Onchocerca and Anti-Caenorhabditis Activity of a Hydro-Alcoholic Extract from the Fruits of Acacia nilotica and Some Proanthocyanidin Derivatives” (Molecules : A Journal of Synthetic Chemistry and Natural …, 2017)
Converted amounts (≈) assume the structure as drawn. Where two headings read alike, the source gives them in different places.

How the values were obtained:
Caco-2 cells [1] = assay: In vitro cytotoxicity (MTT) and CC50 determination; format: cell-based
Method: (§1) Cell culture: […] cells at Passage 70 were kindly provided by Prof. Hensel, Institute of Pharmaceutical Biology and Phytochemistry, University of Münster, and were cultured as previously describe by Zumdick et al..
(§2) Cytotoxicity test: The cytotoxicity assays were performed according to the method of Rahman et al.. Briefly, 1.5 × 10^4 viable cells/well were seeded in a 96-well plate and incubated for 24 to 48 h. […] DMEM samples were used as the negative control. […] The medium was removed, and formazan, generated by the activity of dehydrogenases, was solubilized with 70 µL of acidified isopropanol (0.4 M HCl). The amount of MTT-formazan that is directly proportional to the number of living cells was determined by measuring the optical density (OD) at 540 nm using a spectrophotometer. All controls used were treated equally. As control and to determine 100% growth, Caco-2 cells were grown in the absence of drugs so as to calculate cell viability. All determinations were performed in triplicate. […] The selectivity index (SI) values were calculated as the ratio: SI = CC50 of drug on Caco2/LC50 of drug on worm.

[2] = tested on: C. elegans DA1316 (avr-14(ad1302) I avr-15(ad1051) glc-1(pk54)); assay: microbe, parasite or virus in culture; conditions: for LC50: Caenorhabditis elegans, 48 h
Method: (§3) All strains were obtained from the Caenorhabditis Genetic Centre (CGC, Minneapolis, MN, USA). Strains were maintained at 20 °C on nematode growth medium (NGM). All worms were age-synchronized and obtained from eggs that were isolated by bleaching.
(§4) Young adult (L4 stage) worms were used to assess drug lethality. Monitored endpoint was 48 h mortality. Tests were performed in 24-well plates. Five hundred (500) microliters of test solution, which is M9-buffer (3 g KH2PO4, 6 g Na2HPO4, 5 g NaCl, 0.25 g MgSO4.7H2O, in 1 L of water after been autoclaved supplemented with 2% glucose, 0.5% cholesterol), were distributed in 24-well plates. The volume of M9-buffer equivalent to the drug to be added for each drug final concentration (in each test, three to six concentrations were used) was removed. Untreated worms in M9-buffer were used as negative control. […] Crude extract fraction (stock solution at 100 mg/mL) and pure compound (stock solution at 100 mg/mL) previously dissolved in M9-buffer were then added in well plates at increasing concentration (varying from 0 to 1000 or 1500 µg/mL for extract and fractions; 0 to 100 or 150 µg/mL). The young adult (10 to 15 ± 2) from the axenic culture (without food source) were then added at the test solution. […] Treatments were replicated three times.

[3] = tested on: C. elegans VC722 (glc-2(ok1047) I); assay: microbe, parasite or virus in culture; conditions: for LC50: Caenorhabditis elegans, 48 h
Method: as §3, §4

C. elegans N2 Bristol WT = assay: microbe, parasite or virus in culture
Method: as §3, §4

O. ochengi microfilariae = assay: microbe, parasite or virus in culture; parameters: species or system Onchocerca ochengi
Method: Microfilariae were isolated as describe by Cho-Ngwa et al. and Ndjonka et al.. About 10 skin snips were obtained from different locations of the skin. The skin snips were then incubated at 37 °C in PBS to let Mf emerge. The highly motile Mf were concentrated by centrifugation at 400× g for 10 min and quantified. The Mf were incubated at 37 °C with the crude extract, fractions and pure compounds.
(§5) Adult worms (six individuals per well for males and one per well for the female) and Mf were washed twice and were subsequently transferred to RPMI-1640 medium supplemented with L-glutamine, 100 U/mL penicillin and 100 µg/mL streptomycin and incubated at 37 °C in 24-well plates (96-well plate for Mf) with different concentrations of the drugs tested. Worm mortality was checked by observation under the binocular microscope after 48 h. After shaking, immotile and fully-elongated worms were considered to be dead. All tests were done in three independent triplicate determinations.

O. ochengi males = assay: microbe, parasite or virus in culture; parameters: species or system Onchocerca ochengi
Source text: The adult male worms were isolated as previously describe by Ndjonka et al. from fresh pieces of cattle skin (cow-udder) with palpable nodules obtained from the communal slaughter house of Ngaoundere in the Adamawa region of Cameroon. Nodules removed from the skin were brought to the laboratory, washed, drained and sterilized with 70% ethanol for dissection. After dissection of nodules, O. ochengi were extracted, isolated and washed three times in sterile phosphate-buffered saline (PBS). To analyze the anthelmintic activity of extract, fractions and pure compounds, the worms were incubated at 37 °C.
as §5

O. ochengi [4] = conditions: read-out: LC50 on O. ochengi; stated in the introduction, no reference given; cited from earlier work
O. ochengi females = assay: microbe, parasite or virus in culture; parameters: species or system Onchocerca ochengi
Method: The adult female worms were isolated by digestion of the nodules with collagenase at 37 °C. The female worms were cultured in a CO2-incubator [67]. For anthelmintic activity, they were incubated with the crude extracts, fractions and pure compounds.
as §5

Caco-2 cells [5] = tested on: Caco-2 cells; parameters: method as in PMID 22776719; conditions: at 127 µg/mL; cited from earlier work
[6] = In vitro cytotoxicity (MTT) and CC50 determination; format: cell-based; conditions: human
Method: as §1, §2

[7] = tested on: C. elegans ZZ16 (lev-9(x16) X); assay: microbe, parasite or virus in culture; conditions: Caenorhabditis elegans, 48 h
Method: as §3, §4

[8] = tested on: C. elegans CB211 (lev-1(e211) IV); assay: microbe, parasite or virus in culture; conditions: Caenorhabditis elegans, 48 h
Method: as §3, §4

[9] = tested on: C. elegans CB3474 (ben-1(e1880) III); assay: microbe, parasite or virus in culture; conditions: Caenorhabditis elegans, 48 h
Method: as §3, §4

O. ochengi [10] = assay: Anti-Onchocerca activity, all forms of the parasite (summary statements); conditions: read-out: LC50 against O. ochengi (all three forms)
Method: as §5

Wistar rats = assay: Acute oral toxicity on rats
Source text: Adult Wistar rats (Rattus norvegicus), males aged 7 to 8 weeks and weighing 150 to 200 g, used for the experiments were obtained from LANAVET (Laboratoire National Vétérinaire, Garoua, Cameroon). The rats were acclimatized for one week in the Veterinary Research Laboratory of the Institute of Agricultural Research for Development, Wakwa, Cameroon, before initiating experiments. Animals were housed in groups of three (one group for the negative control, six groups for each drug at the first phase, six others at the second phase) under ambient temperatures (23 °C ± 1 °C) with relative humidity 55 ± 5% and 12 h light/dark cycle in polycarbonate cages. […] They were monitored by a veterinarian for health status.
Acute oral toxicity (LD50, that is the dose that kills 50% of animals of the tested group) was measured using the method of the OECD guidelines for the testing of chemicals [56] following the European Community guidelines for the protection of animals used in experiments [69] and respecting the 3Rs (Replacement, Refinement, Reduction) [70]. Drugs in distilled water were orally administered separately at doses of 10 mg/kg, 100 mg/kg and 1000 mg/kg body weight. The negative controls were distilled water-administered rats. They were given to three groups of three rats each and observed for 24 h. […] The test was done at a single oral dose for each rat in a 5 mL/kg volume. The experimental animals were starved for 24 h before and 4 h after treatment. […] The appearance of toxic symptoms, such as behavioral changes, locomotion, convulsions and mortality, was observed and recorded. Animals were observed constantly for the first 30 min after administration and, thereafter, every 4 h up to 24 h and, subsequently, once a day for up to 14 days.

[11] = Caco-2, CC50 after 48 h calculated in µM, read-out: Cytotoxicity CC50, Caco-2 (in brackets) (converted)
[12] = read-out: LC50/48 h (in brackets)
[13] = SI = CC50 on Caco-2/LC50 on worm
[14] = Onchocerca ochengi, 48 h, read-out: LC50/48 h
[15] = Onchocerca ochengi, 48 h, read-out: LC50/48 h (in brackets)

Question: Which CC50 (Caco-2 cells [1]; [11]) does the source give for Ivermectin [reference compound] here?
Answer: The CC50 was 140 µM.

Question: What about the “Cytotoxicity, means CC50 ± SD, Caco-2” value (Caco-2 cells [1]; Caco-2, MTT) of the same compound?
Answer: The value was 28.7 ± 0.7 µg/mL.

Question: What about the LC50/48 h ([2]; C. elegans DA1316 (ivermectin-resistant)) of the same compound?
Answer: The LC50/48 h was >100 µg/mL.

Question: And the LC50/48 h ([3]; C. elegans VC722 (ivermectin-resistant))?
Answer: Its LC50/48 h is >100 µg/mL.

Question: And the LC50/48 h (C. elegans N2 Bristol WT; C. elegans WT, 48 h, mean ± SD)?
Answer: The LC50/48 h was 1.2 ± 0.1 µg/mL.

Question: What about the LC50 (C. elegans N2 Bristol WT; read-out: LC50/48 h (in brackets), C. elegans WT, 48 h, calculated in µM) of the same compound?
Answer: Its LC50 is 1.3 µM.

Question: What about the LC50 (O. ochengi microfilariae; O. ochengi microfilariae, 48 h, calculated in µM, read-out: LC50/48 h (in brackets) (converted)) of the same compound?
Answer: The LC50 was 1.7 µM.

Question: What about the LC50/48 h (O. ochengi microfilariae; O. ochengi microfilariae, 48 h, mean ± SD) of the same compound?
Answer: The LC50/48 h was 1.5 ± 0.0 µg/mL.

Question: What about the LC50 (O. ochengi males; O. ochengi males, 48 h, calculated in µM, read-out: LC50/48 h (in brackets) (converted)) of the same compound?
Answer: The LC50 was 1.3 µM.

Question: And the LC50/48 h (O. ochengi males; O. ochengi males, 48 h, mean ± SD)?
Answer: Its LC50/48 h is 1.2 ± 0.5 µg/mL.

Question: And the LC50 (O. ochengi [4])?
Answer: The LC50 was 1.7 µM.

Question: What about the LC50 (O. ochengi females; O. ochengi females, 48 h, calculated in µM, read-out: LC50/48 h (in brackets) (converted)) of the same compound?
Answer: The LC50 was 1.7 µM.

Question: What about the LC50/48 h (O. ochengi females; O. ochengi females, 48 h, mean ± SD) of the same compound?
Answer: The LC50/48 h was 1.5 ± 0.3 µg/mL.

Question: Which “Reduction of cell viability” value (Caco-2 cells [5]) does the source give for procyanidin here?
Answer: Its value is 15%.

Question: With `O=C(OC1Cc2c(O)cc(O)cc2OC1c1ccc(O)c(O)c1)c1cc(O)c(O)c(O)c1` (single isomer, unassigned; (-)) [ECG, (−)-epicatechin-3-O-gallate] as the compound, how does the CC50 at 48 h [6, 11] read?
Answer: The CC50 at 48 h was 153 µM.

Question: And the CC50 at 72 h ([6]; Caco-2, MTT, read-out: Cytotoxicity, means CC50 ± SD, Caco-2)?
Answer: The CC50 at 72 h was 67.6 ± 0.5 µg/mL (≈ 153 µM).

Question: What about the LC50 ([2]; read-out: LC50/48 h) of the same compound?
Answer: Its LC50 is 27.4 ± 1.1 µg/mL.

Question: And the LC50 [2, 12]?
Answer: The LC50 was 61.9 µM.

Question: What about the LC50 ([7]; read-out: LC50/48 h) of the same compound?
Answer: The LC50 was 39.5 ± 0.9 µg/mL.

Question: And the LC50 [7, 12]?
Answer: The LC50 was 76.4 µM.

Question: What about the LC50 ([3]; read-out: LC50/48 h) of the same compound?
Answer: The LC50 was 27.2 ± 1.4 µg/mL.

Question: What about the LC50 [3, 12] of the same compound?
Answer: Its LC50 is 61.4 µM.

Question: What about the LC50 ([8]; read-out: LC50/48 h) of the same compound?
Answer: Its LC50 is 41.7 ± 1.2 µg/mL.

Question: What about the LC50 [8, 12] of the same compound?
Answer: The LC50 was 89.3 µM.

Question: And the LC50 ([9]; read-out: LC50/48 h)?
Answer: The LC50 was 19.6 ± 0.8 µg/mL.

Question: What about the LC50 [9, 12] of the same compound?
Answer: The LC50 was 44.2 µM.

Question: What about the LC50 (C. elegans N2 Bristol WT; Caenorhabditis elegans, 48 h, read-out: LC50/48 h) of the same compound?
Answer: The LC50 was 33.8 ± 2.7 µg/mL.

Question: And the “Selectivity Index (SI) C. elegans Wild Type” value (C. elegans N2 Bristol WT; [13])?
Answer: The value was 2.0.

Question: And the LC50 (O. ochengi microfilariae; [14])?
Answer: Its LC50 is 1 ± 0.4 µg/mL.

Question: And the LC50 (O. ochengi microfilariae; [15])?
Answer: Its LC50 is 2.2 µM.

Question: And the “Selectivity Index (SI) O. ochengi Microfilariae” value (O. ochengi microfilariae; [13])?
Answer: Its value is 67.6.

Question: And the LC50 (O. ochengi [10])?
Answer: Its LC50 is < 2.5 µg/mL.

Question: What about the LC50 (O. ochengi males; [14]) of the same compound?
Answer: Its LC50 is 2.1 ± 0.3 µg/mL.

Question: What about the LC50 (O. ochengi males; [15]) of the same compound?
Answer: Its LC50 is 4.7 µM.

Question: What about the “Selectivity Index (SI) O. ochengi Males” value (O. ochengi males; [13]) of the same compound?
Answer: Its value is 32.2.

Question: What about the LC50 (O. ochengi females; [14]) of the same compound?
Answer: Its LC50 is 2.1 ± 0.6 µg/mL.

Question: And the LC50 (O. ochengi females; [15])?
Answer: The LC50 was 4.7 µM.

Question: What about the “Selectivity Index (SI) O. ochengi Females” value (O. ochengi females; [13]) of the same compound?
Answer: The value was 32.2.

Question: And the “Mortality of rats: rat number end/start” value (Wistar rats; Phase 1, 10 mg/kg single oral dose)?
Answer: The value was 0/3.

Question: And the “Mortality of rats: rat number end/start” value (Wistar rats; Phase 1, 100 mg/kg single oral dose)?
Answer: The value was 0/3.

Question: What about the “Mortality of rats: rat number end/start” value (Wistar rats; Phase 1, 1000 mg/kg single oral dose) of the same compound?
Answer: The value was 0/3.

Question: What about the “Mortality of rats: rat number end/start” value (Wistar rats; Phase 2, 1500 mg/kg single oral dose) of the same compound?
Answer: Its value is 0/3.

Question: And the “Mortality of rats: rat number end/start” value (Wistar rats; Phase 2, 3000 mg/kg single oral dose)?
Answer: Its value is 0/3.

Question: And the “Mortality of rats: rat number end/start” value (Wistar rats; Phase 2, 5000 mg/kg single oral dose)?
Answer: The value was 0/3.
